What was measured:
Format in all cases: biochemical
[1] = target: T1, prohormone convertase 1/3 (PC1/3) (Mus musculus, UniProt P63239); experiment: enzyme assay, stimulation of activity at […]
T1 construct: gene Pcsk1
T1 sequence (P63239 111-753): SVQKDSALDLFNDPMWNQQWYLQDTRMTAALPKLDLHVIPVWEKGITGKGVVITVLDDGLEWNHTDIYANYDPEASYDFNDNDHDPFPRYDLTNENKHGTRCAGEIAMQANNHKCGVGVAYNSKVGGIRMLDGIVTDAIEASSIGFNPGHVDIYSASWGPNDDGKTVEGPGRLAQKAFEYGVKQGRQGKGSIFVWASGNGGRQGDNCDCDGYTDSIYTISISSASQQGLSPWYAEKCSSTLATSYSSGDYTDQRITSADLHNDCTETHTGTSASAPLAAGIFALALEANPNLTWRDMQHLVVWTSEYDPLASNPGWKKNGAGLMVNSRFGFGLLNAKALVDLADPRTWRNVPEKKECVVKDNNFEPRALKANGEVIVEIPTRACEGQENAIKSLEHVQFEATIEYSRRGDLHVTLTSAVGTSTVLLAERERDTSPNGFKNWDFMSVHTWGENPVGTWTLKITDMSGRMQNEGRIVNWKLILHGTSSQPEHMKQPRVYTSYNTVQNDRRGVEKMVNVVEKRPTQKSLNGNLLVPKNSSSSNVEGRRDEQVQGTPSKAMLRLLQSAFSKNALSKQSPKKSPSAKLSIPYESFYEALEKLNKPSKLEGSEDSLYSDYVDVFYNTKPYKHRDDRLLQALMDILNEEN

[2] = target: T2, prohormone convertase 2 (PC2) (Mus musculus, UniProt P21661); experiment: fluorogenic enzyme assay with pERTKR-amc, […] inhibition at […] and […] at […]
T2 construct: gene Pcsk2; Recombinant PC2
T2 sequence (P21661 109-637): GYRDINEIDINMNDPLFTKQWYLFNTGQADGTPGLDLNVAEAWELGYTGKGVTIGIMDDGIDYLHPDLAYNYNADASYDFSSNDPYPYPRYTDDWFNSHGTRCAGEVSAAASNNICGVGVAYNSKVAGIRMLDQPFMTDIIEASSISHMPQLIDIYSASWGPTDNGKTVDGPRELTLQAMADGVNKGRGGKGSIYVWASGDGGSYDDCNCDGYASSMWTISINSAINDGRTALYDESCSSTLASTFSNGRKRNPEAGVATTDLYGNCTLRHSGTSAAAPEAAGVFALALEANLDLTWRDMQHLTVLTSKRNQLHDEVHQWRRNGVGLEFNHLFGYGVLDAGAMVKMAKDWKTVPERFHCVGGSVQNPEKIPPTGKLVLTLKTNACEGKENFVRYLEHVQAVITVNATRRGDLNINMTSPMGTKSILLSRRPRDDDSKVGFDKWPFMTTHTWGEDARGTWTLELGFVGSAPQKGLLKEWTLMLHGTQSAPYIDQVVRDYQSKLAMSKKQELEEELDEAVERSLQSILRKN

[3] = target: T2, prohormone convertase 2 (PC2); experiment: fluorogenic enzyme assay, stimulation of activity at […]; details: read-out: % inhibition at 50 μM (negative = stimulation)
[4] = target: T2, prohormone convertase 2 (PC2); experiment: fluorogenic enzyme assay with pERTKR-amc, IC50 and inhibition kinetics

CCOC(=O)C(=CN/N=c1/cc[nH]c2cc(Cl)ccc12)C(=O)OCC [BTB03195]
inhibition at 50 µM [1]: -41% | inhibition at 50 µM [2]: 71%

NCCCN=c1ccc2c3c1c(O)c1c(O)ccc(=O)c1c3[nH]n2CCNCCO [JFD02062]
inhibition at 50 µM [3]: -60%

OC[C@@H](O)[C@H](O)[C@H](O)[C@@H](O)[C@@H]1NCCS1 [RJC00847]
Ki [4]: 690 ± 80 nM
